Source: patent publication US10358436B2, “Kinase inhibitors and method of treating cancer” (University Health Network, priority 2010, dated 2019)
Structures can show the parent of a compound that is named as a salt.

molecular target: Aurora A (Homo sapiens (Human), UniProt O14965); assay: Aurora A inhibition assay (Z-Lyte); type: biochemical; settings: not given
Sequence (O14965 whole entry): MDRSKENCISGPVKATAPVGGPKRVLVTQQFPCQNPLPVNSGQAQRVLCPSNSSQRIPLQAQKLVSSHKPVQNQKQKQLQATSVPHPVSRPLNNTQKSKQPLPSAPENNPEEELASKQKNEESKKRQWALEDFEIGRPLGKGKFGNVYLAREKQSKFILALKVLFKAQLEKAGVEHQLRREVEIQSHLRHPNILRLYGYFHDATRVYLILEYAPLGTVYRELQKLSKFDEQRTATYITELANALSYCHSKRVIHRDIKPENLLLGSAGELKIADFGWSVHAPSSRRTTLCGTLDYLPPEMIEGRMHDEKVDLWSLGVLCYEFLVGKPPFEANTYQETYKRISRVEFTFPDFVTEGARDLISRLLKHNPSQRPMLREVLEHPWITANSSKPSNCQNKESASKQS

SMILES	inhibition at 1 µM [%]
CN1C(=O)[C@@]2(C[C@H]2c2ccc3c(/C=C/c4ccc(CN5CCCCC5)cc4)n[nH]c3c2)c2ccccc21 [Example A94, (1R,2S)-(E)-1′-methyl-2-(3-(4-(piperidin-1-ylmethyl)styryl)-1H-indazol-6-yl)spiro[cyclopropane-1,3′-indolin]-2′-one hydrochloride]	> 50
COc1ccc2c(c1)[C@]1(C[C@H]1c1ccc3c(/C=C/c4ccc5c(c4)CCN(C)C5)n[nH]c3c1)C(=O)N2 [Example A75, (1R,2S)-5′-methoxy-2-(3-((E)-2-(2-methyl-1,2,3,4-tetrahydroisoquinolin-6-yl)vinyl)-1H-indazol-6-yl)spiro[cyclopropane-1,3′-indolin]-2′-one 2,2,2-trifluoroacetate salt]	> 50
CN1CCN(Cc2ccc(-c3n[nH]c4cc([C@@H]5C[C@@]56C(=O)Nc5ccccc56)ccc34)cc2)CC1 (relative stereo) [Example A155, (1R*,2S*)-2-(3-(4-((4-methylpiperazin-1-yl)methyl)phenyl)-1H-indazol-6-yl)spiro[cyclopropane-1,3′-indolin]-2′-one bis-2,2,2-trifluoroacetate]	< 50
COc1ccc2c(c1)[C@]1(C[C@H]1c1ccc3c(/C=C/c4ccc(CN5CC[C@@H](F)C5)cc4)n[nH]c3c1)C(=O)N2 [Example A112, (1R,2S)-(E)-2-(3-(4-(((R)-3-fluoropyrrolidin-1-yl)methyl)styryl)-1H-indazol-6-yl)-5′-methoxyspiro[cyclopropane-1,3′-indolin]-2′-one 2,2,2-trifluoroacetate]	> 50
COc1ccc2c(c1)[C@]1(C[C@H]1c1ccc3c(-c4cccc(CN5CCCCC5)c4)n[nH]c3c1)C(=O)N2 (relative stereo) [Example A44, (1R*,2S*)-5′-methoxy-2-(3-(3-(piperidin-1-ylmethyl)phenyl)-1H-indazol-6-yl)spiro[cyclopropane-1,3′-indolin]-2′-one 2,2,2-trifluoroacetate]	< 50
O=C1Nc2ncc(Br)cc2[C@]12C[C@H]2c1ccc2c(/C=C/c3cccnc3)n[nH]c2c1 (relative stereo) [Example A27, (1R*,2S*)-5′-bromo-2-(3-((E)-2-(pyridin-3-yl)vinyl)-1H-indazol-6-yl)spiro[cyclopropane-1,3′-pyrrolo[2,3-b]pyridin]-2′(1′H)-one]	< 50
COc1ccc2c(c1)[C@]1(C[C@H]1c1ccc3c(/C=C/c4cccc(CN(C)C)c4)n[nH]c3c1)C(=O)N2 (relative stereo) [Example A135, (1R*,2S*)-2-(3-(3-((dimethylamino)methyl)styryl)-1H-indazol-6-yl)-5′-methoxyspiro[cyclopropane-1,3′-indolin]-2′-one 2,2,2-trifluoroacetate]	> 50
O=C1Nc2ccccc2[C@]12C[C@H]2c1ccc2c(/C=C/c3ccc(CN4CCCCC4)cc3)n[nH]c2c1 [Example A58, (1R,2S)-(E)-2-(3-(4-(piperidin-1-ylmethyl)styryl)-1H-indazol-6-yl)spiro[cyclopropane-1,3′-indolin]-2′-one 2,2,2-trifluoroacetate]	> 50
CN(C)Cc1ccc(/C=C/c2n[nH]c3cc([C@@H]4C[C@@]45C(=O)Nc4ccc(OC(F)F)cc45)ccc23)cc1 (relative stereo) [Example A214, (1R*,2S*)-(E)-5′-difluoromethoxy-2-(3-(4-((dimethylamino)methyl)styryl)-1H-indazol-6-yl)spiro[cyclopropane-1,3′-indolin]-2′-one 2,2,2-trifluoroacetate]	> 50
COc1ccc2c(c1)[C@]1(C[C@H]1c1ccc3c(-c4ccc(N5CCN(CCO)CC5)cc4)n[nH]c3c1)C(=O)N2 [Example A191, (1R,2S)-2-(3-(4-(4-(2-hydroxyethyl)piperazin-1-yl)phenyl)-1H-indazol-6-yl)-5′-methoxyspiro[cyclopropane-1,3′-indolin]-2′-one 2,2,2-trifluoroacetate]	< 50
CC(C)(c1ccc(/C=C/c2n[nH]c3cc([C@@H]4C[C@@]45C(=O)Nc4ccccc45)ccc23)cc1)N1CCOCC1 [Example A80, (1R,2S)-(E)-2-(3-(4-(2-morpholinopropan-2-yl)styryl)-1H-indazol-6-yl)spiro[cyclopropane-1,3′-indolin]-2′-one 2,2,2-trifluoroacetate salt]	> 50
COc1ccc2c(c1)[C@@]1(C[C@@H]1c1ccc3c(-c4ccc(N5CCN(C)CC5)nc4)n[nH]c3c1)C(=O)N2 (stereo in doubt) [Example A16, (1S,2R)-5′-methoxy-2-(3-(6-(4-methylpiperazin-1-yl)pyridin-3-yl)-1H-indazol-6-yl)spiro[cyclopropane-1,3′-indolin]-2′-one]	< 50
Cc1ccc2c(c1)[C@]1(C[C@H]1c1ccc3c(-c4ccc(N5CCN(C)CC5)cc4)n[nH]c3c1)C(=O)N2 (relative stereo) [Example A173, (1R*,2S*)-5′-methyl-2-(3-(4-(4-methylpiperazin-1-yl)phenyl)-1H-indazol-6-yl)spiro[cyclopropane-1,3′-indolin]-2′-one 2,2,2-trifluoroacetate]	< 50
COc1ccc2c(c1)[C@]1(C[C@H]1c1ccc3c(-c4ccc(N5CCC(N6CCOCC6)CC5)cc4)n[nH]c3c1)C(=O)N2 [Example A121, (1R,2S)-5′-methoxy-2-(3-(4-(4-morpholinopiperidin-1-yl)phenyl)-1H-indazol-6-yl)spiro[cyclopropane-1,3′-indolin]-2′-one 2,2,2-trifluoroacetate]	< 50
N#Cc1ccc(/C=C/c2n[nH]c3cc([C@@H]4C[C@@]45C(=O)Nc4ccccc45)ccc23)cc1 (relative stereo) [Example A54, 4-((E)-2-(6-((1R*,2S*)-2′-oxospiro[cyclopropane-1,3′-indoline]-2-yl)-1H-indazol-3-yl)vinyl)benzonitrile]	> 50
O=C1Nc2ccc(F)cc2[C@]12C[C@H]2c1ccc2c(/C=C/c3ccc(CN4CCOCC4)cc3)n[nH]c2c1 [Example A220]	> 50
COc1ccc2c(c1)[C@]1(C[C@H]1c1ccc3c(-c4ccc(C5CCNCC5)cc4)n[nH]c3c1)C(=O)N2 (relative stereo) [Example A122, (1R*,2S*)-5′-methoxy-2-(3-(4-(piperidin-4-yl)phenyl)-1H-indazol-6-yl)spiro[cyclopropane-1,3′-indolin]-2′-one 2,2,2-trifluoroacetate]	< 50
COc1ccc2c(c1)[C@]1(C[C@H]1c1ccc3c(/C=C/c4ccc5c(c4)CNCC5)n[nH]c3c1)C(=O)N2 [Example A66, (1R,2S)-5′-methoxy-2-(3-((E)-2-(1,2,3,4-tetrahydroisoquinolin-7-yl)vinyl)-1H-indazol-6-yl)spiro[cyclopropane-1,3′-indolin]-2′-one 2,2,2-trifluoroacetate salt]	> 50

molecular target: human PLK4 (Homo sapiens (Human), UniProt O00444); assay: PLK4 inhibition assay (indirect ELISA); type: biochemical; settings: read-out: PLK4 IC50 Ranges
Sequence (O00444 1-391): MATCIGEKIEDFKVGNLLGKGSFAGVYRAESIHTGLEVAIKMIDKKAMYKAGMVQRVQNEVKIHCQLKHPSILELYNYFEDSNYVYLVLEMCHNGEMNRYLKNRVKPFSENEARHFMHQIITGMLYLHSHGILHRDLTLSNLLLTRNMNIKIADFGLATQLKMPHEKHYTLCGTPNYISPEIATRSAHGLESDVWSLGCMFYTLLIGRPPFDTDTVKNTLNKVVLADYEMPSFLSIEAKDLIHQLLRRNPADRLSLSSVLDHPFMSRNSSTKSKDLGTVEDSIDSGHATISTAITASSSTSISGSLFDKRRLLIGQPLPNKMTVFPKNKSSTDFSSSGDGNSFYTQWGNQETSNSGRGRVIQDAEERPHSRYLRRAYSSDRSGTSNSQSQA
Experimental: PLK4 activity was measured using an indirect ELISA detection system. […] The colourimetric reaction was allowed to continue for 5 minutes, followed by addition of stop solution (0.5 N sulphuric acid), and quantified by detection at 450 nm with either a monochromatic or filter based plate reader (Molecular Devices M5 or Beckman DTX880, respectively).
Compounds were pre-incubated in the presence of enzyme for 15 minutes prior to addition of ATP and the activity remaining quantified using the above described activity assay. […] The IC50 value was determined using a non-linear 4 point logistic curve fit (XLfit4, IDBS) with the formula; (A+(B/(1+((x/C)^D)))), where A=background value, B=range, C=inflection point, D=curve fit parameter.

SMILES	IC50 [nM]
COc1cc2c(cc1OC)[C@]1(C[C@H]1c1ccc3c(-c4cccc(CN5CCOCC5)c4)n[nH]c3c1)C(=O)N2 (relative stereo) [Example A143, (1R*,2S*)-5′,6′-dimethoxy-2-(3-(3-(morpholinomethyl)phenyl)-1H-indazol-6-yl)spiro[cyclopropane-1,3′-indolin]-2′-one 2,2,2-trifluoroacetate]	> 1000
